Assay results published in patent US6583179B2, “Substituted aminoalkylamide derivatives as antagonists of follicle stimulating hormone” (Ortho-McNeil Pharmaceutical, Inc., priority 1999, dated 2003).

System: Rat Granulosa Cell
Assay: Rat granulosa cell FSH-stimulated cAMP production
Format: cell-based
Conditions: inhibition of cAMP produced by EC70 dose of FSH (1.4 nM), maximum concentration 50 μM
Protocol: Insulin, diethylstilbesterol, androstenedione, forskolin and DMSO were purchased from Sigma (St. Louis, Mo.). Fungizone, penicillin/streptomycin, charcoal-treated heat inactivated fetal bovine serum (CT-HI-FBS) and Dulbecco's Modified Eagle Medium:Hams F12 medium containing 15 mM Hepes and L-glutamine (DMEM:F12), were purchased from GIBCO BRL (Grand Island, N.Y.).
Ovine FSH (NIADDK-oFSH-17; FSH potency=20 NIH-FSH-S1 U/mg; LH contamination=0.04 times NIH-LH-S1) was received from Ogden Bioservices Corporation, Rockville, Md. Human FSH (Fertinex), was purchased from Serono Pharmaceutical (Framingham, Mass.). Human chorionic gonadotropin (hCG) was purchased from Sigma (St Louis, Mo.).
Immature intact female rats (Wistar-derived strain; 21-23 days old) were implanted with a single pellet (Innovative Research of America, Sarasota, Fla.) containing 2.5 mg diethylstilbesterol (DES) for 3 days. On the third day, the animals were sacrificed, the ovaries were removed, and the granulosa cells were isolated essentially as described in Haynes-Johnson et al., Biol. Reprod., 61 (1), 147-153, (1999). Granulosa cells were plated at a density of 300,000 cells per ml with 0.2 ml added to each well of 96 well culture dishes (Corning, N.Y.). Cultures were incubated at 37° C. in a humidified incubator (95% air, 5% CO2) overnight (18 hours).
Androstenedione (100,000X) was prepared by dissolving the steroid in 100% ethanol, and was subsequently diluted to a final concentration of 10^−7M containing 0.1% ethanol in assay media. The assay media was serum-free, DES-free, insulin-free media, prepared by adding 5 mL pen-strep,1.5 mL fungizone and 5 μL androstenedione to 493.5 mL DMEM F-12 media.
Test compounds were solubilized in 30% dimethyl sulfoxide (DMSO) at a concentration of 10 mM before diluting to appropriate concentrations in assay medium. The final DMSO concentration in the treated cells and in the control cells was 0.75%.
Test plates containing the granulosa cells were preincubated for 18 hours at 37° C. with 95% air, 5% CO2, 100% humidity. The spent media was removed and 50 μl assay media (DMEM:F12) containing 2 mM IBMX (3-isobutyl-1-methyl-xanthine) was added to the cells. Compounds (25 μl) in the appropriate concentration were added followed 5 minutes later by an EC70 dose of FSH (25 μl; 50 ng/ml; 1.4 nM). After 30 minutes @ 22.5° C. (room temperature) the reaction was terminated by addition of 25 μL 0.5 N hydrochloric acid to each well. The amount of cAMP produced was measured by radioimmunoassay in a FlashPlate (DuPont, Boston, Mass.). To each flash plate 60 μL flash plate buffer was added followed by 40 μL acidified cell sample or cAMP standard, followed with the addition of 100 μl ^125l-cAMP trace. The FlashPlates were sealed, incubated overnight @ room temperature, and counted in a Packard TopCount (Packard Instrument Co., Meriden, Conn.). The cAMP radioimmunoassay results were calculated using DPM conversion and log-logit transformation of % binding (Excel program).

SMILES | EC50 [nM]
C[C@@H](CN(CC(=O)NCc1ccc(CN)cc1)S(=O)(=O)c1ccc(-c2ccccc2Cl)cc1)c1ccccc1 [Compound 198] | 20
Cc1ccccc1-c1ccc(S(=O)(=O)N(CC(=O)NCc2ccc(CN)cc2)C[C@@H](C)c2ccccc2)cc1 [Compound 215] | 10
